# Active and inactive are the calls of the source. The calls are words filed in the database; no cut-off is given here.
# Experiments:
# [1] = biological target: T1, High affinity nerve growth factor receptor (Homo sapiens, UniProt P04629)
# Target sequence in this assay (P04629 whole entry): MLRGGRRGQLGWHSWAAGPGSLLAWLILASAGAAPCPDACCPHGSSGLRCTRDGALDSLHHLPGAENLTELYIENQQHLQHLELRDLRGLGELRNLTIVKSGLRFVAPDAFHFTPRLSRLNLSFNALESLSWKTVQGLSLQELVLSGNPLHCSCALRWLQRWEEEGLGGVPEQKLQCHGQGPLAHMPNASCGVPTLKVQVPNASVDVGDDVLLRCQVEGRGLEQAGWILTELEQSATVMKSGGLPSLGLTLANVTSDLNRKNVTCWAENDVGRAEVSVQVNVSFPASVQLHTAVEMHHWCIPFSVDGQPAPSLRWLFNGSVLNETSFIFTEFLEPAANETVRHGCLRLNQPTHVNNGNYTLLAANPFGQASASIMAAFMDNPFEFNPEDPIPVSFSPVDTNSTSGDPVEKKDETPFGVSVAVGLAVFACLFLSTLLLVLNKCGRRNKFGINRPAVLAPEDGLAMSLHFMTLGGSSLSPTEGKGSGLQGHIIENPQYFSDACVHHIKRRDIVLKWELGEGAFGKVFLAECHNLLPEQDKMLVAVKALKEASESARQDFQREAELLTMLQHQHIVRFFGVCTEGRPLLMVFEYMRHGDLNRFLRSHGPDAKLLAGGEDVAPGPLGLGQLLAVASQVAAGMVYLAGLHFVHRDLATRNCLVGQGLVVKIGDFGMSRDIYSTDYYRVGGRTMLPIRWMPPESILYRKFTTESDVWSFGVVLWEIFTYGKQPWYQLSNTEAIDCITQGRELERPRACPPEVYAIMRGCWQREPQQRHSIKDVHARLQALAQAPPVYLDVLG
# Description: Inhibition of phsophorylated TrkA (unknown origin) assessed as inhibition of fluorescently-labelled substrate phosphorylation by CALIPER enzymatic assay
# [2] = biological target: T1, High affinity nerve growth factor receptor; remark: listed apart in the source
# Target sequence in this assay (P04629 whole entry): as above
# Description: Inhibition of human TrkA expressed in human U2OS cells assessed as inhibition of NGF-induced maximum response after 1 hr by beta-galactosidase assay
# [3] = biological target: T1, High affinity nerve growth factor receptor; remark: listed apart in the source
# Target sequence in this assay (P04629 whole entry): as above
# Description: Binding affinity to His-tagged TrkA (unknown origin) after 1 hr by SPR method
# [4] = biological target: T1, High affinity nerve growth factor receptor; remark: listed apart in the source
# Target sequence in this assay (P04629 33-796 limits assumed): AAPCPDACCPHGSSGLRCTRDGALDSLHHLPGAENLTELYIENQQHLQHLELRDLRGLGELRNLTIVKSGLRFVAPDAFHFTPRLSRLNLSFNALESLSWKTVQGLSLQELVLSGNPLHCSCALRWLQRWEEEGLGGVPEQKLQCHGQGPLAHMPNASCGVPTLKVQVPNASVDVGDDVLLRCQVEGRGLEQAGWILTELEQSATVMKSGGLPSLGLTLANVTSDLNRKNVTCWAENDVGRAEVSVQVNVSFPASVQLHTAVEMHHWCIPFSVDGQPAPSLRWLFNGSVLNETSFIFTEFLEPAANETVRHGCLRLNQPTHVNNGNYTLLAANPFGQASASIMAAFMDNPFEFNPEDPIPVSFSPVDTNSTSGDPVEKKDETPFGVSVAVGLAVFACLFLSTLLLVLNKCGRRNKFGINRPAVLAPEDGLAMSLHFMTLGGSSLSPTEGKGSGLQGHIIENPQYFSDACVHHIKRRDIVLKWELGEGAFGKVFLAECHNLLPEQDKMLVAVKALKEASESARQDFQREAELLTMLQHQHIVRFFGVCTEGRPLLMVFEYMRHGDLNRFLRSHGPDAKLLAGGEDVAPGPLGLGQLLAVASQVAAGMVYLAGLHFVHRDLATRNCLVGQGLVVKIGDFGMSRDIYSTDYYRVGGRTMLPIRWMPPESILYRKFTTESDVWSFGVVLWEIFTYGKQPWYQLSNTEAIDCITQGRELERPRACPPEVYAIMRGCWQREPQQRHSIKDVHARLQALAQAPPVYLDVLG
# Description: Binding affinity to His-tagged TrkA (unknown origin) assessed as half life after 1 hr by SPR method
# [5] = biological target: T1, High affinity nerve growth factor receptor; assay: Inhibition of purified TrkA cytoplasmic domain (unknown origin) by HTRF assay
# Target sequence in this assay (P04629 whole entry): as the sequence (P04629 whole entry) above
# Rattus norvegicus [6] = assay: Analgesic activity in po dosed Sprague-Dawley rat Chung spinal nerve ligation model assessed as reversal of mechanical hypersensitivity relative to control; assay type: functional, organism-based
# Rattus norvegicus [7] = assay: Antiinflammatory activity in Complete-Freunds adjuvant-induced Sprague-Dawley rat pain model assessed as reversal of mechanical hypersensitivity at 30 mg/kg, po bid for 7 days; assay type: functional, organism-based; set-up: dose 30 mg/kg
# Plasma [8] = assay: Fraction unbound in plasma of Sprague-Dawley rat Chung spinal nerve ligation model assessed as reversal of mechanical hypersensitivity at 100 mg/kg, po; assay type: ADME, organism-based; set-up: dose 100 mg/kg, route oral; conditions: in vivo
# [9] = Half life in rat; assay type: ADME, organism-based; conditions: in vivo
# Plasma [10] = assay: Fraction unbound in plasma of Complete-Freunds adjuvant-induced Sprague-Dawley rat pain model at 10 mg/kg, po after 2 hrs; assay type: ADME, organism-based; set-up: dose 10 mg/kg, route oral; conditions: in vivo
# [11] = Ratio of fraction unbound in plasma of Complete-Freunds adjuvant-induced Sprague-Dawley rat pain model at 100 mg/kg, po after 2 hrs to IC50 for human TrkA expressed in human U2OS cells; assay type: ADME, organism-based; set-up: dose 100 mg/kg, route oral; conditions: in vivo
# Plasma [12] = assay: Plasma concentration in Sprague-Dawley rat Chung spinal nerve ligation model assessed as reversal of mechanical hypersensitivity at 10 mg/kg, po; assay type: ADME, organism-based; set-up: dose 10 mg/kg, route oral; conditions: in vivo
# Rattus norvegicus [13] = assay: Antiinflammatory activity in Complete-Freunds adjuvant-induced Sprague-Dawley rat pain model assessed as reversal of mechanical hypersensitivity at 100 mg/kg, po bid for 7 days; assay type: functional, organism-based; set-up: dose 100 mg/kg
# [14] = Plasma concentration in Complete-Freunds adjuvant-induced Sprague-Dawley rat pain model at 10 mg/kg, po after 2 hrs; assay type: ADME, organism-based; set-up: dose 10 mg/kg, route oral
# [15] = Plasma protein binding in rat; assay type: ADME, cell-free; conditions: read-out: PPB (converted)
# Plasma [16] = assay: Fraction unbound in plasma of Sprague-Dawley rat Chung spinal nerve ligation model assessed as reversal of mechanical hypersensitivity at 10 mg/kg, po; assay type: ADME, organism-based; set-up: dose 10 mg/kg, route oral; conditions: in vivo
# Plasma [17] = assay: Fraction unbound in plasma of Sprague-Dawley rat Chung spinal nerve ligation model assessed as reversal of mechanical hypersensitivity at 30 mg/kg, po; assay type: ADME, organism-based; set-up: dose 30 mg/kg, route oral; conditions: in vivo
# Plasma [18] = assay: Fraction unbound in plasma of Complete-Freunds adjuvant-induced Sprague-Dawley rat pain model at 100 mg/kg, po after 2 hrs; assay type: ADME, organism-based; set-up: dose 100 mg/kg, route oral; conditions: in vivo
# [19] = Oral bioavailability in rat; assay type: ADME, organism-based; conditions: in vivo
# [20] = Ratio of fraction unbound in plasma of Complete-Freunds adjuvant-induced Sprague-Dawley rat pain model at 30 mg/kg, po after 2 hrs to IC50 for human TrkA expressed in human U2OS cells; assay type: ADME, organism-based; set-up: dose 30 mg/kg, route oral; conditions: in vivo
# Plasma [21] = assay: Plasma concentration in Sprague-Dawley rat Chung spinal nerve ligation model assessed as reversal of mechanical hypersensitivity at 100 mg/kg, po; assay type: ADME, organism-based; set-up: dose 100 mg/kg, route oral; conditions: in vivo
# Plasma [22] = assay: Fraction unbound in plasma of Complete-Freunds adjuvant-induced Sprague-Dawley rat pain model at 30 mg/kg, po after 2 hrs; assay type: ADME, organism-based; set-up: dose 30 mg/kg, route oral; conditions: in vivo
# [23] = Clearance in rat; assay type: ADME, organism-based; conditions: in vivo
# [24] = Ratio of fraction unbound in plasma of Sprague-Dawley rat Chung spinal nerve ligation model assessed as reversal of mechanical hypersensitivity at 30 mg/kg, po to IC50 for human TrkA expressed in human U2OS cells; assay type: ADME, organism-based; set-up: dose 30 mg/kg, route oral; conditions: in vivo
# Rattus norvegicus [25] = assay: Analgesic activity in Sprague-Dawley rat Chung spinal nerve ligation model assessed as reversal of mechanical hypersensitivity at 30 mg/kg, po relative to control; assay type: functional
# [26] = Plasma concentration in Complete-Freunds adjuvant-induced Sprague-Dawley rat pain model at 30 mg/kg, po after 2 hrs; assay type: ADME, organism-based; set-up: dose 30 mg/kg, route oral
# [27] = Plasma concentration in Complete-Freunds adjuvant-induced Sprague-Dawley rat pain model at 100 mg/kg, po after 2 hrs; assay type: ADME, organism-based; set-up: dose 100 mg/kg, route oral
# [28] = Ratio of fraction unbound in plasma of Complete-Freunds adjuvant-induced Sprague-Dawley rat pain model at 10 mg/kg, po after 2 hrs to IC50 for human TrkA expressed in human U2OS cells; assay type: ADME, organism-based; set-up: dose 10 mg/kg, route oral; conditions: in vivo
# Plasma [29] = assay: Plasma concentration in Sprague-Dawley rat Chung spinal nerve ligation model assessed as reversal of mechanical hypersensitivity at 30 mg/kg, po; assay type: ADME, organism-based; set-up: dose 30 mg/kg, route oral; conditions: in vivo
# [30] = Ratio of fraction unbound in plasma of Sprague-Dawley rat Chung spinal nerve ligation model assessed as reversal of mechanical hypersensitivity at 10 mg/kg, po to IC50 for human TrkA expressed in human U2OS cells; assay type: ADME, organism-based; set-up: dose 10 mg/kg, route oral; conditions: in vivo
# [31] = Ratio of fraction unbound in plasma of Sprague-Dawley rat Chung spinal nerve ligation model assessed as reversal of mechanical hypersensitivity at 100 mg/kg, po to IC50 for human TrkA expressed in human U2OS cells; assay type: ADME, organism-based; set-up: dose 100 mg/kg, route oral; conditions: in vivo
smiles,measurement,setting,value
O=C(O)c1cc2cc(-c3cc[nH]n3)ccc2n1CCOc1ccc(OC(F)(F)F)cc1,IC50,[1],0.051 µM
same,IC50,[2],0.029 µM
CCOc1cccc(-c2nccc3c2cc(C(=O)O)n3CCOc2ccc(Cl)cc2)c1,Kd,[3],0.0035 µM
same,IC50,[1],0.653 µM
same,T1/2,[4],2.13 h
same,IC50,[2],0.2 µM
Cc1cn2cc(CNc3ncnc4ccc(N5CCC[C@@H]5c5cc(F)ccc5F)nc34)nc2s1,IC50,[1],0.013 µM
same,IC50,[5],0.0015 µM
CCOc1cccc(-c2nccc3c2cc(C(=O)O)n3CCOc2ccccc2)c1,IC50,[1],2.07 µM
same,IC50,[2],0.109 µM
O=C(NCc1cccc(-c2nccs2)c1)Nc1ccc(OC(F)(F)F)cc1,IC50,[1],> 100 µM
c1cncc(CNc2ccc3ncnc(Nc4ccc(N5CCOCC5)cc4)c3n2)c1,IC50,[5],0.997 µM
CC(C)C[C@H](CN)CC(=O)O,inhibition,Rattus norvegicus [6],Active
CC(C)N(Cc1c[nH]c2ncccc12)C(=O)Nc1ccc(OC(F)(F)F)cc1,IC50,[1],0.011 µM
same,IC50,[2],0.003 µM
COc1ccc2cc([C@H](C)C(=O)O)ccc2c1,inhibition,Rattus norvegicus [7],Active
CCOc1cccc(-c2nccc3c2cc(C(=O)O)n3CCOc2ccc(OC(F)(F)F)cc2)c1,IC50,[1],0.348 µM
same,IC50,[2],0.059 µM
Cc1cn(-c2ccc(-c3cn(CC(=O)Nc4cc(C5CC5)nn4-c4ccccc4)nn3)cc2)cn1,IC50,[2],0.009 µM
same,IC50,[5],0.06 µM
CN1CCN(c2ccc(Nc3ncnc4ccc(NCc5cccc(Cl)c5)nc34)cc2)CC1,Kd,[3],0.063 µM
same,IC50,[1],1.69 µM
same,IC50,[5],0.011 µM
CC(C)(C)c1cc(NC(=O)Cn2cc(-c3ccc(-n4ccnc4)nc3)nn2)n(-c2cccnc2)n1,Cp(f),Plasma [8],115 nM
same,Kd,[3],0.00094 µM
same,half-life,[9],2.6 h
same,Cp(f),Plasma [10],5 nM
same,Ratio,[11],16
same,concentration,Plasma [12],1000 nM
same,inhibition,Rattus norvegicus [13],Active
same,concentration at 2 h,[14],1000 nM
same,fraction unbound,[15],0.005
same,Cp(f),Plasma [16],5 nM
same,Cp(f),Plasma [17],34 nM
same,T1/2,[4],1.13 h
same,Cp(f),Plasma [18],80 nM
same,IC50,[2],0.007 µM
same,IC50,[5],0.009 µM
same,bioavailability,[19],30%
same,Ratio,[20],4
same,concentration,Plasma [21],23000 nM
same,Cp(f),Plasma [22],20 nM
same,clearance,[23],16 mL/min/kg
same,Ratio,[24],6
same,inhibition in vivo at 30 mg/kg,Rattus norvegicus [25],50%
same,concentration at 2 h,[26],4000 nM
same,inhibition,Rattus norvegicus [7],Active
same,concentration at 2 h,[27],16000 nM
same,Ratio,[28],1
same,concentration,Plasma [29],6700 nM
same,Ratio,[30],1
same,Ratio,[31],23
N#Cc1ccc2c(c1)cc(C(=O)O)n2CCOc1ccc(OC(F)(F)F)cc1,IC50,[1],0.118 µM
same,IC50,[2],0.15 µM
O=C(O)c1cc2cnccc2n1CCOc1ccc(OC(F)(F)F)cc1,IC50,[1],12.3 µM
same,IC50,[2],15.8 µM
CC(C)N(Cc1cccc(-c2nccs2)c1)C(=O)Nc1ccc(OC(F)(F)F)cc1,Kd,[3],0.063 µM
same,IC50,[1],0.132 µM
same,T1/2,[4],0.1 h
same,IC50,[2],0.056 µM

# — ChEMBL document CHEMBL3297676, “Maximizing diversity from a kinase screen: identification of novel and selective pan-Trk inhibitors for chronic pain” (J Med Chem, 2014)
